Read-outs that look alike come from different tables or passages of the source.
Assays:
[1] = system: keratinization of hamster tracheal epithelium (tracheal organ culture, vitamin A deficiency); experiment: Reversal of keratinization in tracheal organ culture; format: cell-based; conditions: Mesocricetus auratus, 240 h, read-out: ED50 (molar dose effective in suppressing keratinization in one-half of the cultures)
Excerpt: This keratinization is inhibited, after initiation by chemical compounds, through the use of high energy radiation, or after viral cell transformation, through the use of the novel compounds of the formula (I). The method is described in Cancer Res. 36 (1976), 964-972, Nature 250 (1974), 64-66 and Nature 253 (1975), 47-50.
This assay measures the intrinsic ability of the novel compounds to control epithelial cell differentiation. The significant predictive value of this screening procedure for the potential use of a novel retinoid in the prevention of epithelial tissue tumors is generally accepted. At the same time it is known that any in vitro test system has disadvantages for the prediction of in vivo activity. Apart from these fundamental limitations, the tracheal organ culture assay is one of the most valuable procedures for evaluating the biological activity of a novel retinoid.
The assay procedure determines the ability of the two compounds to reverse keratinization in a defined in vitro system. Tracheas from hamsters in a very early stage of vitamin A deficiency were placed in organ culture. At that time, the animals were 29-30 days old (having been weaned at 21 days) and were still gaining some weight. Their average weight was 47-52 g. Their tracheal epithelium was generally low columnar or cuboidal, with only occasional patches of squamous metaplasia. Each trachea was opened from the larynx to the carina along the membranous dorsal wall and placed in culture in a serum-free medium (CMRL-1066 supplemented with crystalline bovine insulin, 1.0 μg/ml; hydrocortisone hemisuccinate, 0.1 μg/ml; glutamine, 2 mM; penicillin, 100 units/ml; and streptomycin, 100 μg/ml). The cultures were gassed with a mixture of 50% of oxygen, 45% of nitrogen and 5% of carbon dioxide. The culture dishes were rocked through 35.5-36.0 degrees to contact the tracheas with both gas and medium. All tracheas were maintained in medium containing no retinoid for the first 3 days. At the end of the 3 days, some tracheas were harvested. Almost all of these tracheas had significant squamous metaplasia. […]

[2] = system: male Sprague-Dawley CD rats; experiment: Comparative oral toxicity in rats (inhibition of growth and lethality over two weeks); conditions: for Proportion of survivors, Day 6 / Proportion of survivors, Day 11: 25 μmole/day in corn oil with 4% chloroform; for Average weight, Day 6 / Average weight, Day 11: 25 μmole/day, initial weight 95-110 g; for Average weight, Day 6: Day 6, mean with standard deviation; for Average weight, Day 11: Day 11, mean with standard deviation
Method: 2. Comparative toxicity of all-E-N-(tetrazol-5-yl)-retinamide and 13-Z-N-(tetrazol-5-yl)-retinamide.
(a) Male Sprague-Dawley CD rats from Charles River (50-75 g) were randomized and weighed daily for one week before the start of the experiment. At the beginning of the toxicological screen the animals weighed 95-110 g.
(b) The vehicle for the test substances was corn oil containing 4% of chloroform. The dose was 25 μmole of test substance/day, in 0.5 ml of vehicle.

[3] = system: comedones induced by coal tar (rabbit ear model); experiment: Comedolytic activity in a rabbit ear model; format: in vivo, albino rabbit; conditions: topical, two weeks, decrease in comedones vs control ear
Method: Comedo formation was induced by topical application (0.5 ml), once daily, of 5% coal tar in Polyan® (an ester of lanolin alcohol and linoleic acid, from Amerchol Corp., USA) to both ears of albino rabbits on 5 successive days per week, for two weeks. Following this, the test substance, in a 70:30 volume/volume alcohol:propylene glycol mixture, was applied topically, in an amount of 0.5 ml, to the inner surface of one ear of each rabbit once daily on 5 consecutive days per week, for two weeks. The contra-lateral ear of each rabbit served as an untreated control.
Following a subsequent treatment (~72 hours) with the test substance, the rabbits were sacrificed. A sample of skin, of about 6 cm^2, was removed from the pinna of each ear just external to the auditory canal and was divided into pieces of about 1 cm^2.
These pieces of skin were immersed in water at 60° C. for 2 minutes. The epidermis was carefully peeled off using the flat end of a spatula and fine forceps, and was placed on a microscope slide, with the dermal side facing upward. After overnight airdrying, the slide was examined under the stereomicroscope. Follicular extensions of horny material remain intact. Comedones show up as discrete, uniformly shaped, cylindrical to global horny masses, whose size and number are proportional to the […].
The comedolytic effect was determined by the decrease in the number of comedones in comparison with the control ear.

[4] = system: dorsal skin (erythema and scaling); parameters: species or system New Zealand white rabbit (male); conditions: rabbit, in vivo
Method: 4. Topical tolerance study of the test substances Six New Zealand white male rabbits were used in each study. Sites, each about 6 cm^2 in size, were shaved on the dorsal trunk of each test animal. The test substances were dissolved in a 70:30 volume/volume alcohol:propylene glycol mixture and 0.2 ml of the solution was applied topically from an automatic micropipette by gentle inunction to a pre-designated site twice daily, with an interval of six hours, for nine successive days. All sites were subjectively evaluated for erythema and scaling at the beginning of the test and before each morning application. A numerical grading scale of 0 to 3 was used (0=no reaction, 1=mild, 2=moderate, 3=severe).

the organism = conditions: in vivo; cited from earlier work
liver = conditions: use in therapy; cited from earlier work
[5] = hamster tracheal organ culture, serum-free medium, 10 days, extrapolated from dose-response curves

Structure (SMILES) | IC50 [1, 5] [pM] | Proportion of survivors, Day 6 [2] | Proportion of survivors, Day 11 [2] | Average weight, Day 6 [2] | Average weight, Day 11 [2] | % comedolytic activity ([3]; 0.1% concentration) [%] | Rating erythema [4] | Rating scaling [4] | mean erythema [4] | mean scaling [4] | IC50 [1] [pM] | % comedolytic activity ([3]; 0.05% concentration) [%] | toxic effects (the organism) | % comedolytic activity ([3]; 0.025% concentration) [%] | liver retinoid concentration and organ damage (liver)
CC1=C(/C=C/C(C)=C/C=C/C(C)=C\C(=O)Nc2nnn[nH]2)C(C)(C)CCC1 [13-Z-N--(tetrazol-5-yl)-retinamide, 13-Z-N-(tetrazol-5-yl)-retinamide] | 200 | 2/5 | 2/5 | 122 ± 18 | 140 ± 27 | 39.4 | mild | none | 0.5 | 0.1 |  |  |  |  | 
CC1=C(/C=C/C(C)=C/C=C/C(C)=C/C(=O)O)C(C)(C)CCC1 [all-E-retinoic acid, reference compound] |  | 3/5 | 0/5 | 95 ± 2 |  |  | moderate | moderate | 2.3 | 1.9 | 30 | 58.3 | even slightly increased doses cause severe damage to the organism, for example with symptoms of hypervitaminosis-A |  | 
CC1=C(/C=C/C(C)=C/C=C/C(C)=C/C(=O)Nc2nnn[nH]2)C(C)(C)CCC1 [all-E-N--(tetrazol-5-yl)-retinamide, all-E-N-(tetrazol-5-yl)-retinamide] | 100 | 3/4 | 3/4 | 124 ± 6 | 155 ± 4 |  | mild | none | 0.8 | 0 |  |  |  | 35.1 | 
CC(=O)OC/C=C(C)/C=C/C=C(C)/C=C/C1=C(C)CCCC1(C)C [retinyl acetate] |  |  |  |  |  |  |  |  |  |  |  |  |  |  | intolerably high retinoid concentration in the liver leads to severe and irreversible damage to the organ
CC1=C(/C=C/C(C)=C/C=C/C(C)=C/CO)C(C)(C)CCC1 [retinol] |  |  |  |  |  |  |  |  |  |  |  |  |  |  | intolerably high retinoid concentration in the liver leads to severe and irreversible damage to the organ
CC1=C(/C=C/C(C)=C/C=C/C(C)=C\C(=O)O)C(C)(C)CCC1 [13-Z-retinoic acid, reference compound] |  |  |  |  |  |  | severe | severe | 3.0 | 3.0 |  |  |  |  | 

— US4459404A, “Amides of retinoic acids with 5-amino tetrazole” (BASF Aktiengesellschaft, priority 1980, dated 1984)
